Results taken from the supplement of paper PMC10307832.

How the values were obtained:
Experiment in all cases: relative viability (nuclei count vs DMSO), 5 days (fraction); higher = more cells survive
[1] = compound: CC1(COc2ccc3c(c2)ncn3-c2ccc3cccc(N4CCC(N)CC4)c3n2)COC1 [Crenolanib]
Method in brief: (§1)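 Five library-drug doses, separated by factors of √10, were pinned into 1536-well plates holding lung cancer cell lines after an overnight stay at 37 °C. Cells were fixed, permeabilised and Hoechst-stained in one step after 5 days without medium change, then imaged at 4×. Viability compares treated-well with vehicle-well nuclei, counted in MetaXpress, as a median across plates. Passing plates had control CV below 25% and at least one doubling.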

[2] = compound: O=C1NC(=O)[C@@H](c2cn3c4c(cccc24)CCC3)[C@@H]1c1c[nH]c2ccccc12 [Tivantinib]
Method in brief: as §1

[3] = compound: O=C1NC(=O)[C@@H](c2cn3c4c(cccc24)CCC3)[C@@H]1c1c[nH]c2ccccc12 [Tivantinib] + COc1cc2c(Oc3ccc(NC(=O)C4(C(=O)Nc5ccc(F)cc5)CC4)cc3F)ccnc2cc1OCCCN1CCOCC1 [Foretinib] (partner 0.25 µM)
Method in brief: (§2)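 Relative viability was taken as the ratio of nuclei in treated wells to nuclei in vehicle wells. Lung cancer cell lines in 1536-well plates received compounds by pin tool one day after seeding, either one drug alone or a fixed anchor-drug dose plus five library-drug doses (not always all listed) in √10 steps. Nuclei were counted on 4× images after 5 days of treatment, and values are medians of duplicate plates.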

[4] = compound: O=C1NC(=O)[C@@H](c2cn3c4c(cccc24)CCC3)[C@@H]1c1c[nH]c2ccccc12 [Tivantinib] + CS(=O)(=O)N1CCN(Cc2cc3nc(-c4cccc5[nH]ncc45)nc(N4CCOCC4)c3s2)CC1 [Pictilisib] (partner 1 µM)
Method in brief: as §2

UMC-11 gave a relative viability ([1]; 0.01 µM) of 0.963, a relative viability ([1]; 0.03162 µM) of 0.978 and a relative viability ([1]; 0.1 µM) of 0.972. For the same cell line, the relative viability ([1]; 0.3162 µM) was 1.01, the relative viability ([1]; 1 µM) was 0.931 and the relative viability ([2]; 0.01 µM) was 0.966. It also gave a relative viability ([2]; 0.03162 µM) of 0.842, a relative viability ([2]; 0.1 µM) of 0.923 and a relative viability ([2]; 0.3162 µM) of 1.03. For the same cell line, the relative viability ([3]; first compound 0.01 µM) was 1.04, the relative viability ([3]; first compound 0.03162 µM) was 0.975 and the relative viability ([3]; first compound 0.1 µM) was 0.944. For the same cell line, the relative viability ([3]; first compound 0.3162 µM) was 1.01, the relative viability ([4]; first compound 0.01 µM) was 0.733 and the relative viability ([4]; first compound 0.03162 µM) was 0.423. For the same cell line, the relative viability ([4]; first compound 0.1 µM) was 0.75 and the relative viability ([4]; first compound 0.3162 µM) was 0.954.
